Test results: ChEMBL document CHEMBL1150317, “Discovery of aryl aminoquinazoline pyridones as potent, selective, and orally efficacious inhibitors of receptor tyrosine kinase c-Kit” (J Med Chem, 2008)

Assays:
[1] = Inhibition of casein kinase 1 at 1 uM relative to control
[2] = molecular target: Mitogen-activated protein kinase 12 (Homo sapiens) (UniProt P53778); test: Inhibition of p38-gamma at 1 uM relative to control
[3] = Volume of distribution at steady state in Sprague-Dawley rat at 1 mg/kg, iv; format: ADME, organism-based; parameters: dose 1 mg/kg, route intravenous; details: in vivo, read-out: Vdss
[4] = molecular target: Mitogen-activated protein kinase 11 (Homo sapiens) (UniProt Q15759); test: Inhibition of p38beta at 1 uM relative to control
[5] = molecular target: Dual specificity mitogen-activated protein kinase kinase 1 (Homo sapiens) (UniProt Q02750); test: Inhibition of MEK1 at 1 uM relative to control
Chain of Dual specificity mitogen-activated protein kinase kinase 1 (Homo sapiens) (Q02750 whole entry): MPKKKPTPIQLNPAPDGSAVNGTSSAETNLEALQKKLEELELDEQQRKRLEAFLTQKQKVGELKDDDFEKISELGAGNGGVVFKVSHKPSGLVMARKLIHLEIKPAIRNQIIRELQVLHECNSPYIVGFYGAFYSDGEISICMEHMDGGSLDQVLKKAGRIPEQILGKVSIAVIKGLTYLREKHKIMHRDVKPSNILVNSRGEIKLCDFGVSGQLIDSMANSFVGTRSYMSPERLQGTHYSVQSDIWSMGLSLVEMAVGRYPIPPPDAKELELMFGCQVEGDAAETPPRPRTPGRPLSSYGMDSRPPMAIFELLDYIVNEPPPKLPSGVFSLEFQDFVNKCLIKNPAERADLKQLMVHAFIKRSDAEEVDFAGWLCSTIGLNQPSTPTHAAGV

[6] = molecular target: Tyrosine-protein kinase Lck (Homo sapiens, UniProt P06239)
Description: Inhibition of Lck by TR-FRET assay

[7] = molecular target: Cyclin-dependent kinase 2 (Homo sapiens) (UniProt P24941); test: Inhibition of CDK2 at 1 uM relative to control
[8] = Half life in Sprague-Dawley rat at 10 mg/kg, po; format: ADME, organism-based; parameters: dose 10 mg/kg, route oral; details: in vivo
[9] = molecular target: Rho-associated protein kinase 2 (Homo sapiens) (UniProt O75116); test: Inhibition of ROCK2 at 1 uM relative to control
[10] = molecular target: Dual specificity mitogen-activated protein kinase kinase 7 (Homo sapiens) (UniProt O14733); test: Inhibition of MKK7 at 1 uM relative to control
[11] = molecular target: Calcium/calmodulin-dependent protein kinase type IV (Homo sapiens) (UniProt Q16566); test: Inhibition of CAMK4 at 1 uM relative to control
Chain of Calcium/calmodulin-dependent protein kinase type IV (Homo sapiens) (Q16566 whole entry): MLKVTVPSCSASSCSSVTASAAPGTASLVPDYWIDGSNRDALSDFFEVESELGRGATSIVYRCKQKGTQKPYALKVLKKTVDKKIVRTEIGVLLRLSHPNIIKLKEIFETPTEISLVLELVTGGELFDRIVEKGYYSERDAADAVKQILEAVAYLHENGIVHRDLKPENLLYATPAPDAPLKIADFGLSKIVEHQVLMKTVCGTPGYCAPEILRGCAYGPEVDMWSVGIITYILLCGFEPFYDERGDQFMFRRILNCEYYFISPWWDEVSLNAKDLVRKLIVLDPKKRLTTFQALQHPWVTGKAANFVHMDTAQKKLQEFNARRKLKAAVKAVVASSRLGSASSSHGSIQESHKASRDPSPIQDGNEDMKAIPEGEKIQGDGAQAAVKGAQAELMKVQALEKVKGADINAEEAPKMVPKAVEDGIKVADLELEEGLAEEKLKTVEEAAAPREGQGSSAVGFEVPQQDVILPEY

[12] = system: Plasma; test: Protein binding in po dosed C57BL/6 mouse plasma by ultracentrifugation; format: ADME, organism-based; details: in vivo
[13] = molecular target: Proto-oncogene tyrosine-protein kinase Src (Homo sapiens, UniProt P12931)
Description: Inhibition of Src by TR-FRET assay

[14] = molecular target: Protein kinase C alpha type (Homo sapiens) (UniProt P17252); test: Inhibition of PKCalpha at 1 uM relative to control
[15] = AUC (0 to t) in Sprague-Dawley rat at 10 mg/kg, po; format: ADME, organism-based; parameters: dose 10 mg/kg, route oral; details: plasma
[16] = molecular target: MAP kinase-activated protein kinase 5 (Homo sapiens) (UniProt Q8IW41); test: Inhibition of PRAK at 1 uM relative to control
[17] = molecular target: RAC-alpha serine/threonine-protein kinase (Homo sapiens) (UniProt P31749); test: Inhibition of PKBalpha at 1 uM relative to control
Chain of RAC-alpha serine/threonine-protein kinase (Homo sapiens) (P31749 whole entry): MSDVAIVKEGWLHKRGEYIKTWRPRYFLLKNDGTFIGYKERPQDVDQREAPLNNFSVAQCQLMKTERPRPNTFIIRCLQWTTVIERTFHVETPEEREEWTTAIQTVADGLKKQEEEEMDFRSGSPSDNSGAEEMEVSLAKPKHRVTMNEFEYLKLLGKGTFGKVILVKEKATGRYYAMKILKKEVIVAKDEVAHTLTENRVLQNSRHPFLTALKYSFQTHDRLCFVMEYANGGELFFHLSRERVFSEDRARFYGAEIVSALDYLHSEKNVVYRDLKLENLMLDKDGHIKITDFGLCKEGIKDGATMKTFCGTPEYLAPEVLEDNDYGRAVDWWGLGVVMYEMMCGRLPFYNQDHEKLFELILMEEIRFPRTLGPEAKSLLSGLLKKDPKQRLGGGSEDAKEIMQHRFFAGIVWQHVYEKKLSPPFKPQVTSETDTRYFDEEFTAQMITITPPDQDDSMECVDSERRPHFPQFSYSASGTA

[18] = molecular target: MAP kinase-activated protein kinase 2 (Homo sapiens) (UniProt P49137); test: Inhibition of MAPKAPK2 at 1 uM relative to control
[19] = molecular target: Mitogen-activated protein kinase 13 (Homo sapiens) (UniProt O15264); test: Inhibition of p38delta at 1 uM relative to control
[20] = molecular target: Glycogen synthase kinase-3 beta (Homo sapiens) (UniProt P49841); test: Inhibition of GSK3-beta at 1 uM relative to control
[21] = molecular target: Ribosomal protein S6 kinase alpha-5 (Homo sapiens) (UniProt O75582); test: Inhibition of MSK1 at 1 uM relative to control
[22] = Oral bioavailability in Sprague-Dawley rat at 10 mg/kg; format: ADME, organism-based; details: in vivo
[23] = molecular target: Mitogen-activated protein kinase 8 (Homo sapiens) (UniProt P45983); test: Inhibition of JNK1 at 1 uM relative to control
[24] = molecular target: Protein kinase C beta type (Homo sapiens) (UniProt P05771); test: Inhibition of PKCbeta at 1 uM relative to control
[25] = molecular target: Serine/threonine-protein kinase N2 (Homo sapiens) (UniProt Q16513); test: Inhibition of PRK2 at 1 uM relative to control
[26] = molecular target: Protein kinase C gamma type (Homo sapiens) (UniProt P05129); test: Inhibition of PKCgamma at 1 uM relative to control
[27] = Inhibition of PKAalpha at 1 uM relative to control
[28] = molecular target: Serine/threonine-protein kinase Chk1 (Homo sapiens) (UniProt O14757); test: Inhibition of CHK1 at 1 uM relative to control
[29] = molecular target: 5'-AMP-activated protein kinase subunit beta-1 (Homo sapiens) (UniProt Q9Y478); test: Inhibition of AMPK at 1 uM relative to control
Chain of 5'-AMP-activated protein kinase subunit beta-1 (Homo sapiens) (Q9Y478 whole entry): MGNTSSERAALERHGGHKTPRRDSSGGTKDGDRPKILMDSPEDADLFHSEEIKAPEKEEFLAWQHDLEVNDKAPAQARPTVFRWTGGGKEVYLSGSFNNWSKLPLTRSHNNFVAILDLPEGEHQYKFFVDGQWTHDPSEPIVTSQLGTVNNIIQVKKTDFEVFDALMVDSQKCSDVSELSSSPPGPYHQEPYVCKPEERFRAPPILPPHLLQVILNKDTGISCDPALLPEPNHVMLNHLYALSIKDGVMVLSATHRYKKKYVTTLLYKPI

[30] = molecular target: Tyrosine-protein kinase ZAP-70 (Homo sapiens) (UniProt P43403); test: Inhibition of ZAP70 at 1 uM relative to control
[31] = Inhibition of CAMK2 at 1 uM relative to control
[32] = molecular target: Dual specificity mitogen-activated protein kinase kinase 4 (Homo sapiens) (UniProt P45985); test: Inhibition of MKK4 at 1 uM relative to control
[33] = molecular target: Mitogen-activated protein kinase 1 (Homo sapiens) (UniProt P28482); test: Inhibition of MAPK1 at 1 uM relative to control
Chain of Mitogen-activated protein kinase 1 (Homo sapiens) (P28482 whole entry): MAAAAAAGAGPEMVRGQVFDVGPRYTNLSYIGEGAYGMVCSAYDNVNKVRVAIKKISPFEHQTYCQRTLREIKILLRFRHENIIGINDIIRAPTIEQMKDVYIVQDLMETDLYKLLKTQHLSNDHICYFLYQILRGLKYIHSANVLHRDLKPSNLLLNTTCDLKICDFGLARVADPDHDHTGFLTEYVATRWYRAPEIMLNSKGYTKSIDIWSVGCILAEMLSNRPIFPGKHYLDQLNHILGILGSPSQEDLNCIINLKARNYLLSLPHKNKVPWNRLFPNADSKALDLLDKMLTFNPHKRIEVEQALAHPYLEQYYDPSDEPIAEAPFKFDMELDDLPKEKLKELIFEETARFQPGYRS

[34] = molecular target: Mitogen-activated protein kinase 1 (Homo sapiens) (UniProt P28482); test: Inhibition of MAPK2 at 1 uM relative to control
[35] = molecular target: Mitogen-activated protein kinase 9 (Homo sapiens) (UniProt P45984); test: Inhibition of JNK2 at 1 uM relative to control
[36] = molecular target: Cyclin-dependent kinase 1 (Homo sapiens) (UniProt P06493); test: Inhibition of CDK1 at 1 uM relative to control
[37] = molecular target: Mitogen-activated protein kinase 14 (Homo sapiens) (UniProt Q16539); test: Inhibition of p38alpha at 1 uM relative to control
[38] = system: Mus musculus; test: Effect on SCF-induced mast cell activation in po dosed C57BL/6 mouse assessed as decrease in histamine release in blood; format: functional, organism-based; details: C57BL/6, Blood
[39] = molecular target: Serine/threonine-protein kinase Chk2 (Homo sapiens) (UniProt O96017); test: Inhibition of CHK2 at 1 uM relative to control
[40] = molecular target: Dual specificity mitogen-activated protein kinase kinase 6 (Homo sapiens) (UniProt P52564); test: Inhibition of MKK6 at 1 uM relative to control
[41] = Inhibition of p38 by TR-FRET assay
[42] = molecular target: Platelet-derived growth factor receptor alpha (Homo sapiens, UniProt P16234)
Chain of Platelet-derived growth factor receptor alpha (P16234 whole entry): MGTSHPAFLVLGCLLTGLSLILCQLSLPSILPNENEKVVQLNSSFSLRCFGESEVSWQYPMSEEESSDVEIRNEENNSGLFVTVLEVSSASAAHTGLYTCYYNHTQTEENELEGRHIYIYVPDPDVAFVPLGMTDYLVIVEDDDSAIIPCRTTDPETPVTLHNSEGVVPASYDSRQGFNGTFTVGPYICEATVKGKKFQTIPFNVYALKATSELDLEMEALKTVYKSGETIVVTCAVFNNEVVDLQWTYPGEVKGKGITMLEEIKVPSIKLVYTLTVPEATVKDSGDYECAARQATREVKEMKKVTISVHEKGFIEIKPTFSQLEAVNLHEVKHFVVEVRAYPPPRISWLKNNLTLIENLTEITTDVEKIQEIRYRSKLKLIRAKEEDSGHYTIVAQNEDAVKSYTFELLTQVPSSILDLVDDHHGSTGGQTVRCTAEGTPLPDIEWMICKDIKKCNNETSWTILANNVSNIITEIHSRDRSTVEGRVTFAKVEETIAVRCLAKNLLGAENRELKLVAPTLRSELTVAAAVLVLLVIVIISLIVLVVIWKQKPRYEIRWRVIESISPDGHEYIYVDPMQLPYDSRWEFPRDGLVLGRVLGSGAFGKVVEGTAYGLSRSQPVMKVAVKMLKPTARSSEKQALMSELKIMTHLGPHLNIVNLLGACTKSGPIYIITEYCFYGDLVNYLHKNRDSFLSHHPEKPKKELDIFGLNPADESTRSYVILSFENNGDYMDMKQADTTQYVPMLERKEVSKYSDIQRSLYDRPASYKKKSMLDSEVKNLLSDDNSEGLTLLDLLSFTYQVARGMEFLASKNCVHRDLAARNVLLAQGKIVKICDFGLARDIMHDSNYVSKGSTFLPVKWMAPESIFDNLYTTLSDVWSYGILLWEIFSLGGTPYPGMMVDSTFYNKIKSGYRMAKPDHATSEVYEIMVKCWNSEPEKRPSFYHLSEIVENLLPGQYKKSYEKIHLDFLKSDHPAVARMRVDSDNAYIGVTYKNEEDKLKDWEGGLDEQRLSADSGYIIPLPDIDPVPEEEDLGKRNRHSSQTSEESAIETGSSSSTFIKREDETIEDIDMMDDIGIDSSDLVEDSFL
Description: Inhibition of PDGFRalpha by TR-FRET assay

[43] = Inhibition of casein kinase 2 at 1 uM relative to control
[44] = molecular target: Mitogen-activated protein kinase 10 (Homo sapiens) (UniProt P53779); test: Inhibition of JNK3 at 1 uM relative to control
Chain of Mitogen-activated protein kinase 10 (Homo sapiens) (P53779 whole entry): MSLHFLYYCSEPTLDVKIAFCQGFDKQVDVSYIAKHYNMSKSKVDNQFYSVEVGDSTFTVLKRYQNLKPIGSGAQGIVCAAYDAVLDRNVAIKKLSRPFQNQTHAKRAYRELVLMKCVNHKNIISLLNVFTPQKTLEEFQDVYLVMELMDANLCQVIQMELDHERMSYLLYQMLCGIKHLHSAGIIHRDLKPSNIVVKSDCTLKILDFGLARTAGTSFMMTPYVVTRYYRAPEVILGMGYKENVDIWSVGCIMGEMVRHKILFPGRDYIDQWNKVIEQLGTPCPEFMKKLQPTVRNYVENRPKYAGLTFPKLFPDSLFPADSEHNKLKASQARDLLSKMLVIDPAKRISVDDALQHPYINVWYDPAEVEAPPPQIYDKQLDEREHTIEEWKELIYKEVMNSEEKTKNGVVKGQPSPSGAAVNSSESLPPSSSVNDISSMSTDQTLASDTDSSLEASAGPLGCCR

[45] = Clearance in Sprague-Dawley rat at 1 mg/kg, iv; format: ADME, organism-based; parameters: dose 1 mg/kg, route intravenous; details: in vivo
[46] = molecular target: Ribosomal protein S6 kinase beta-1 (Homo sapiens) (UniProt P23443); test: Inhibition of P70S6 at 1 uM relative to control
[47] = Cmax in Sprague-Dawley rat at 10 mg/kg, po; format: ADME, organism-based; parameters: dose 10 mg/kg, route oral; details: in vivo
[48] = molecular target: Tyrosine-protein kinase ABL1 (Homo sapiens, UniProt P00519); test: Inhibition of Abl by TR-FRET assay
[49] = molecular target: Serine/threonine-protein kinase Sgk1 (Homo sapiens) (UniProt O00141); test: Inhibition of SGK1 at 1 uM relative to control
[50] = molecular target: Vascular endothelial growth factor receptor 2 (Homo sapiens, UniProt P35968)
Description: Inhibition of KDR by TR-FRET assay

Cc1ccn(-c2cccc(C(F)(F)F)c2)c(=O)c1-c1ccc2nc(N)ncc2c1
inhibition [1]: > 50%
inhibition [2]: > 50%
Vd [3]: 4.12 L/kg
inhibition [4]: > 50%
inhibition [5]: > 50%
IC50 [6]: 1.7 µM
inhibition [7]: 50%
half-life [8]: 1.83 h
inhibition [9]: > 50%
inhibition [10]: > 50%
inhibition [11]: > 50%
Activity [12]: 87.85%
IC50 [13]: 0.86 µM
inhibition [14]: > 50%
AUC(0-t) [15]: 1.04 µg·h/mL
inhibition [16]: > 50%
inhibition [17]: > 50%
inhibition [18]: > 50%
inhibition [19]: > 50%
inhibition [20]: > 50%
inhibition [21]: > 50%
bioavailability [22]: 25%
inhibition [23]: > 50%
inhibition [24]: > 50%
inhibition [25]: > 50%
inhibition [26]: > 50%
inhibition [27]: > 50%
inhibition [28]: > 50%
inhibition [29]: > 50%
inhibition [30]: > 50%
inhibition [31]: 50%
inhibition [32]: > 50%
inhibition [33]: > 50%
inhibition [34]: > 50%
inhibition [35]: > 50%
inhibition [36]: > 50%
inhibition [37]: > 50%
EC50 [38]: 0.0126 µM
ED50 ([38]; po): 4.7 mg/kg
inhibition [39]: > 50%
inhibition [40]: > 50%
IC50 [41]: 6.1 µM
IC50 [42]: 0.009 µM
inhibition [43]: > 50%
inhibition [44]: > 50%
clearance [45]: 2.46 L/h/kg
inhibition [46]: > 50%
Cmax [47]: 0.253 µg/mL
IC50 [48]: 1.4 µM
inhibition [49]: > 50%
IC50 [50]: > 5 µM
